We go through three compounds from patent publication US9023789B2, “Amylin analogs and pharmaceutical compositions thereof” (Novo Nordisk A/S, priority 2012, dated 2015).

pEC50, pIC50: −log10 of the molar value. Values after ≈ are worked out from the molar mass of the structure shown. Where two headings read alike, the source gives them in different places. Numbered stars: 1 amine (or outer) side, 2 acyl side, 3 side chain; on linkers, the order of the positions; unused ones are H or OH. Bridge positions count the residues as written; N and C are the ends. Side chains are listed from the residue outwards. Peptide text beside a SMILES is read from it. * marks the point of attachment. C20 diacid = O=C(O)CCCCCCCCCCCCCCCCCCC(=O)*; γGlu = O=C(O)[C@H](CCC(=O)[*:2])N[*:1]; AEEA = NCCOCCOCC(=O)O Where only a bound is given, the exact number is not on record here.

Data set [1] addresses T1, human amylin receptor (membranes from Amylin 3(a)/CRE-luc cells) (Homo sapiens, UniProt O60896+P30988).
T1 construct: expressed in transfected cells
T1 sequence (P30988 25-474): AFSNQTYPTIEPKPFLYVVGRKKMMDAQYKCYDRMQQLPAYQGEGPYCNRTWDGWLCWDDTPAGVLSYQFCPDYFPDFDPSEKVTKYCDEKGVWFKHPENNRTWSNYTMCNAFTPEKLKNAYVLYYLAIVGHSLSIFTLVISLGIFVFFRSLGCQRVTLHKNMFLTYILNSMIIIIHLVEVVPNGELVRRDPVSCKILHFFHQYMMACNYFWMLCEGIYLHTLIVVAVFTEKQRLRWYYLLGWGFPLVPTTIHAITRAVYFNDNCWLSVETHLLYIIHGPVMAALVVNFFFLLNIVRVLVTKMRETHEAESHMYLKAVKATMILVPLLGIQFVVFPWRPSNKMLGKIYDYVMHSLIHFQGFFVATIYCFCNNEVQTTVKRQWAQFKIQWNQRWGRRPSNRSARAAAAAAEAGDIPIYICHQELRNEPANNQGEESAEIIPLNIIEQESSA
T1 sequence (O60896 24-148 partner): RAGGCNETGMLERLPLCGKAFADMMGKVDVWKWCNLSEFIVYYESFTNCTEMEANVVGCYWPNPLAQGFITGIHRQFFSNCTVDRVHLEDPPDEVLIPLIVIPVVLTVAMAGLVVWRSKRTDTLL
Description: ASSAY (V) binding to the human amylin receptor (SPA, 125I-rat amylin).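 For all read-outs here: competition binding of cell membranes (35 ng/µL) mixed with SPA beads in 384-well plates at 40 µL total volume, read by scintillation counting.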 To be noted: for pIC50: Table 4, read-out: hAmylin-R bind IC50.

The target of data set [2] is T2, human amylin 3(a) receptor (human calcitonin receptor + RAMP-3) in BHK570 cells (Homo sapiens, UniProt O60896+P30988).
T2 construct: expressed in transfected cells
As to the kind of experiment: ASSAY (II)a functional assay, human amylin receptor (CRE luciferase). It is filed as cell-based. To be noted: for pEC50: human amylin receptor functional potency, assay (II), read-out: hAmylin-R funct. EC50. The procedure, abridged: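 BHK cells stably carrying a CRE-luciferase reporter plus calcitonin receptor, or calcitonin receptor with RAMP-3 for the amylin 3(a) receptor, were seeded and kept overnight at 37° C. Compounds were added in assay medium with 10% FBS and 10 mM Hepes, pH 7.4, for 3 hours at 37° C, then luminescence was counted.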

Data set [3] in a line: ASSAY (IV) determination of solubility. It is filed as physicochemical. The procedure, abridged: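 Polypeptide in water at […] mixed 1:1 with 100 mM buffers of pH 3.0-8.0 (glycylglycine pH 3-5, bistrispropane pH 6-8). Held 18 h at room temperature, then centrifuged; concentration remaining in solution measured by UPLC.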
[4] abbreviates: Table 5, selectivity, hCTR bind IC50 / hAmylin-R bind IC50.
[5] abbreviates: Table 5a, selectivity, hCTR bind IC50 / hAmylin-R bind IC50.
The mark [6] stands for this setting: Table 5b, selectivity, hCTR bind IC50 / hAmylin-R bind IC50.
Setting [7] is: Table 5c, selectivity, hCTR bind IC50 / hAmylin-R bind IC50.
Where [8] appears, read: Table 7, human binding selectivity, included for comparison.
Where [9] appears, read: Table 7a (preferred compounds), human binding selectivity, included for comparison.
The mark [10] stands for this setting: ratio of human calcitonin receptor binding IC50 to human amylin receptor binding IC50.
Where [11] appears, read: hCTR funct. EC50 divided by hAmylin-R funct. EC50.
Setting [12] is: hCTR funct. EC50 over hAmylin-R funct. EC50.
The mark [13] stands for this setting: human functional selectivity: hCTR funct. EC50 / hAmylin-R funct. EC50.
Setting [14] is: bistrispropane buffer, pH 6.5, read-out: Solubility pH 6.5 Concentration.
[15] abbreviates: bistrispropane buffer, pH 7.5, read-out: Solubility pH 7.5 Concentration.
Where [16] appears, read: bistrispropane buffer, pH 6.0, read-out: Solubility pH 6.0 Concentration.
The mark [17] stands for this setting: bistrispropane buffer, pH 7.0, read-out: Solubility pH 7.0 Concentration.
[18] abbreviates: bistrispropane buffer, pH 8.0, read-out: Solubility pH 8.0 Concentration.
Where [19] appears, read: glycylglycine buffer, pH 3.0, read-out: Solubility pH 3.0 Concentration.
[20] abbreviates: glycylglycine buffer, pH 4.0, read-out: Solubility pH 4.0 Concentration.
[21] abbreviates: glycylglycine buffer, pH 5.0, read-out: Solubility pH 5.0 Concentration.

One may read the pIC50 as the negative decadic logarithm of the IC50, by convention in mol/L. A word on the pEC50: it is the EC50 on a negative log10 scale, so that one unit is a factor of ten. For `CC[C@H](C)[C@H](NC(=O)[C@H](C)NC(=O)CNC(=O)[C@H](Cc1ccccc1)NC(=O)[C@H](CC(N)=O)NC(=O)[C@@H]1CCCN1C(=O)[C@H](CO)NC(=O)[C@H](CO)NC(=O)[C@H](Cc1c[nH]cn1)NC(=O)[C@H](CCCNC(=N)N)NC(=O)[C@H](CC(C)C)NC(=O)[C@H](Cc1ccccc1)NC(=O)[C@H](Cc1c[nH]cn1)NC(=O)[C@H](C)NC(=O)[C@H](CC(C)C)NC(=O)[C@H](CCCNC(=N)N)NC(=O)[C@H](CCC(N)=O)NC(=O)[C@@H](NC(=O)[C@H](C)NC(=O)[C@@H]1CSSC[C@H](NC(=O)[C@@H](N)CCCCNC(=O)CC[C@H](NC(=O)CCCCCCCCCCCCCCCCCCC(=O)O)C(=O)O)C(=O)N[C@@H](CC(N)=O)C(=O)N[C@@H]([C@@H](C)O)C(=O)N[C@@H](C)C(=O)N[C@@H]([C@@H](C)O)C(=O)N1)[C@@H](C)O)C(=O)N1CCC[C@H]1C(=O)N[C@@H](CO)C(=O)N[C@@H](CO)C(=O)N[C@H](C(=O)N[C@@H](CC(N)=O)C(=O)N[C@H](C(=O)NCC(=O)N[C@@H](CO)C(=O)N[C@@H](CC(N)=O)C(=O)N[C@H](C(=O)N[C@@H](Cc1ccc(O)cc1)C(N)=O)[C@@H](C)O)C(C)C)[C@@H](C)O` [Example 70] (H-K([γGlu-C20 diacid])CNTATCATQRLAHFLRHSSPNFGAIPSSTNVGSNTY-NH2; disulfide 2-7; N-terminus assumed), in data set [1], the pIC50 was 9.77. The “Ratio hCT/hAmylin binding” value in data set [1] (setting [4]), in data set [1] (setting [5]), in data set [1] (setting [6]), in data set [1] (setting [7]), in data set [1] (setting [8]) and in data set [1] (setting [9]) was 60.8 each time. For the same compound, the “Ratio hCT/hAmylin binding” value in data set [1] (setting [10]) is recorded as 60.8. The “Ratio hCT/hAmylin funct.” value in data set [2] (setting [11]), in data set [2] (setting [12]) and in data set [2] (setting [13]) was 17.9 each time. In addition, the pEC50 in data set [2] was 10.40. Also, the solubility at 18 h in data set [3] (setting [14]), in data set [3] (setting [15]), in data set [3] (setting [16]), in data set [3] (setting [17]), in data set [3] (setting [18]) and in data set [3] (setting [19]) was no less than 200 µM in each case. In addition, the solubility at 18 h in data set [3] (setting [20]) and in data set [3] (setting [21]) was no less than 200 µM in each case.

Consider `CC[C@H](C)[C@H](NC(=O)[C@H](C)NC(=O)CNC(=O)[C@H](Cc1ccccc1)NC(=O)[C@H](CC(N)=O)NC(=O)[C@@H]1CCCN1C(=O)[C@H](CO)NC(=O)[C@H](CO)NC(=O)[C@H](Cc1c[nH]cn1)NC(=O)[C@H](CCCNC(=N)N)NC(=O)[C@H](CC(C)C)NC(=O)[C@H](Cc1ccccc1)NC(=O)[C@@H](NC(=O)[C@H](C)NC(=O)[C@H](CC(C)C)NC(=O)[C@H](CCCNC(=N)N)NC(=O)[C@H](CCC(N)=O)NC(=O)[C@@H](NC(=O)[C@H](C)NC(=O)[C@@H]1CSSC[C@H](NC(=O)[C@@H](N)CCCCNC(=O)COCCOCCNC(=O)CC[C@H](NC(=O)CCCCCCCCCCCCCCCCCCC(=O)O)C(=O)O)C(=O)N[C@@H](CC(N)=O)C(=O)N[C@@H]([C@@H](C)O)C(=O)N[C@@H](C)C(=O)N[C@@H]([C@@H](C)O)C(=O)N1)[C@@H](C)O)[C@@H](C)O)C(=O)N1CCC[C@H]1C(=O)N[C@@H](CO)C(=O)N[C@@H](CO)C(=O)N[C@H](C(=O)N1CCC[C@H]1C(=O)N[C@H](C(=O)NCC(=O)N[C@@H](CO)C(=O)N[C@@H](CC(N)=O)C(=O)N[C@H](C(=O)N[C@@H](Cc1ccc(O)cc1)C(N)=O)[C@@H](C)O)C(C)C)[C@@H](C)O` [Example 75] (H-K([AEEA-γGlu-C20 diacid])CNTATCATQRLATFLRHSSPNFGAIPSSTPVGSNTY-NH2; disulfide 2-7 (inferred); N-terminus assumed), for which, in data set [1], the pIC50 was 9.18. Besides, the “Ratio hCT/hAmylin binding” value in data set [1] (setting [4]), in data set [1] (setting [5]), in data set [1] (setting [6]), in data set [1] (setting [7]), in data set [1] (setting [8]) and in data set [1] (setting [9]) was 91.4 in each case. The “Ratio hCT/hAmylin binding” value in data set [1] (setting [10]) turned out to be 91.4. Further, the “Ratio hCT/hAmylin funct.” value in data set [2] (setting [11]), in data set [2] (setting [12]) and in data set [2] (setting [13]) was 30.6 throughout. Moreover, the pEC50 in data set [2] is 9.53. For the same compound, the solubility at 18 h in data set [3] (setting [14]) was no less than 200 µM; in data set [3] (setting [15]) it was 193 µM (≈ 868 µg/mL); in data set [3] (setting [16]) it was no less than 200 µM; in data set [3] (setting [17]), no less than 200 µM; in data set [3] (setting [18]), 150 µM (≈ 674 µg/mL); in data set [3] (setting [19]) it was no less than 200 µM. The solubility at 18 h in data set [3] (setting [20]) and in data set [3] (setting [21]) was no less than 200 µM in each case.

`CC[C@H](C)[C@H](NC(=O)[C@H](C)NC(=O)CNC(=O)[C@H](Cc1ccccc1)NC(=O)[C@H](CC(N)=O)NC(=O)[C@@H]1CCCN1C(=O)[C@H](CO)NC(=O)[C@H](CO)NC(=O)[C@H](Cc1c[nH]cn1)NC(=O)[C@H](CCCNC(=N)N)NC(=O)[C@H](CC(C)C)NC(=O)[C@H](Cc1ccccc1)NC(=O)[C@H](CC(N)=O)NC(=O)[C@H](C)NC(=O)[C@H](CC(C)C)NC(=O)[C@H](CCCNC(=N)N)NC(=O)[C@H](CCC(N)=O)NC(=O)[C@@H](NC(=O)[C@H](C)NC(=O)[C@@H]1CSSC[C@H](NC(=O)[C@H](CCCNC(=N)N)NC(=O)[C@@H](N)CCCCNC(=O)CC[C@H](NC(=O)CCCCCCCCCCCCCCCCCCC(=O)O)C(=O)O)C(=O)N[C@@H](CC(N)=O)C(=O)N[C@@H]([C@@H](C)O)C(=O)N[C@@H](C)C(=O)N[C@@H]([C@@H](C)O)C(=O)N1)[C@@H](C)O)C(=O)N1CCC[C@H]1C(=O)N[C@@H](CO)C(=O)N[C@@H](CO)C(=O)N[C@H](C(=O)N[C@@H](CC(N)=O)C(=O)N[C@H](C(=O)NCC(=O)N[C@@H](CO)C(=O)N[C@@H](Cc1c[nH]cn1)C(=O)N[C@H](C(=O)N[C@@H](Cc1ccc(O)cc1)C(N)=O)[C@@H](C)O)C(C)C)[C@@H](C)O` [Example 44] (H-K([γGlu-C20 diacid])RCNTATCATQRLANFLRHSSPNFGAIPSSTNVGSHTY-NH2; disulfide 3-8): the negative-log IC50 (pIC50) in data set [1] is 9.56. Also, the “Ratio hCT/hAmylin binding” value in data set [1] (setting [4]), in data set [1] (setting [5]), in data set [1] (setting [6]), in data set [1] (setting [8]), in data set [1] (setting [9]) and in data set [1] (setting [10]) was 17.7 throughout. In addition, the “Ratio hCT/hAmylin funct.” value in data set [2] (setting [11]), in data set [2] (setting [12]) and in data set [2] (setting [13]) was 24.0 in each case. Moreover, the pEC50 in data set [2] was 9.70. Further, the solubility at 18 h in data set [3] (setting [14]) is no less than 200 µM; in data set [3] (setting [15]), 87 µM (≈ 397 µg/mL); in data set [3] (setting [16]) it was no less than 200 µM; in data set [3] (setting [17]), no less than 200 µM; in data set [3] (setting [18]), 39 µM (≈ 178 µg/mL); in data set [3] (setting [19]) it was no less than 200 µM. Besides, the solubility at 18 h in data set [3] (setting [20]) and in data set [3] (setting [21]) was no less than 200 µM throughout.
